Where only a bound is given, the exact number is not on record here.

The target of the first test is T1, full length AKT E17K (Homo sapiens, UniProt P31749, E17K).
T1 construct: host or cells: HEK-293 (ATCC CRL-1573)
T1 sequence (P31749 whole entry E17K): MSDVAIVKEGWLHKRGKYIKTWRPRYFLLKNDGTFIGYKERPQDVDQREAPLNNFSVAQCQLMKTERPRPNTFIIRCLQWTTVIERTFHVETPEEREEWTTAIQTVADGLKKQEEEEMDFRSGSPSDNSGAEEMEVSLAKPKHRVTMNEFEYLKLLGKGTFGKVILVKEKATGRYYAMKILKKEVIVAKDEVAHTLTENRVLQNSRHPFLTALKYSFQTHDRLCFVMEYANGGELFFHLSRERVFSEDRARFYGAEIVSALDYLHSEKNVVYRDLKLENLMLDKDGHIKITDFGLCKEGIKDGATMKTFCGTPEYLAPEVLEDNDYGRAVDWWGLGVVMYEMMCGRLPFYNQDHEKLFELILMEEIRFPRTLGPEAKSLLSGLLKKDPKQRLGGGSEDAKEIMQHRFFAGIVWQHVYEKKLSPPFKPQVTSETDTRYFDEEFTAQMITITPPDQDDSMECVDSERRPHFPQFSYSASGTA
In words: NanoBRET Target Engagement (TE) Assay. The format is cell-based. The settings on record: competitive displacement of tracer in cells, read-out: AKT1 E17K IC50. The method in brief:
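Compound and tracer incubated 2 h before luminescence at donor 450 nm and acceptor 600 nm, with extracellular signal inhibited. EC50 by sigmoidal variable-slope regression.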
A general note: In BRET a luciferase serves as donor, and the signal depends on an acceptor being close.
As to `CNc1ccc2nc(-c3cccnc3N)n(-c3ccc(CN4CCC(Nc5ccnc(C#N)n5)CC4)cc3)c2n1` [Example 457, 4-((1-(4-(2-(2-Aminopyridin-3-yl)-5-(methylamino)-3H-imidazo[4,5-b]pyridin-3-yl)benzyl)piperidin-4-yl)amino)pyrimidine-2-carbonitrile], the IC50 lay within 15 to 60 nM. Consider `N#Cc1nccc(NC2CCN(Cc3ccc(-n4c(-c5cccnc5N)nc5ccc(-c6ccccn6)nc54)cc3)CC2)n1` [Example 495, 4-((1-(4-(2-(2-Aminopyridin-3-yl)-5-(pyridin-2-yl)-3H-imidazo[4,5-b]pyridin-3-yl)benzyl)piperidin-4-yl)amino)pyrimidine-2-carbonitrile], for which the IC50 was < 15 nM.

Take `N#Cc1nccc(NC2CCN(Cc3ccc(-n4c(-c5cccnc5N)nc5ccc(-c6cnn(CF)n6)nc54)cc3)CC2)n1` [Example 618, 4-((1-(4-(2-(2-Aminopyridin-3-yl)-5-(2-(fluoromethyl)-2H-1,2,3-triazol-4-yl)-3H-imidazo[4,5-b]pyridin-3-yl)benzyl)piperidin-4-yl)amino)pyrimidine-2-carbonitrile]: the IC50 is < 15 nM. The same measure, in the same setting: for `N#Cc1nccc(NC2CCN(Cc3ccc(-n4c(-c5nccnc5N)nc5ccc(-c6ccc(OCF)nc6)nc54)cc3)CC2)n1` [Example 639, 4-((1-(4-(2-(3-Aminopyrazin-2-yl)-5-(6-(fluoromethoxy)pyridin-3-yl)-3H-imidazo[4,5-b]pyridin-3-yl)benzyl)piperidin-4-yl)amino)pyrimidine-2-carbonitrile] the value was < 15 nM; for `N#Cc1nccc(N2C[C@H]3CN(Cc4ccc(-n5c(-c6cccnc6N)nc6ccc(-c7ccc(F)cc7)nc65)cc4)C[C@H]3C2)n1` [Example 449, 4-((3aR,6aS)-5-(4-(2-(2-Aminopyridin-3-yl)-5-(4-fluorophenyl)-3H-imidazo[4,5-b]pyridin-3-yl)benzyl)hexahydropyrrolo[3,4-c]pyrrol-2(1H)-yl)pyrimidine-2-carbonitrile], 15 to 60 nM.

The test is the same for the next values; noted with them: competitive tracer displacement in living cells, read-out: AKT1 E17K IC50.
In the case of `N#Cc1ccncc1C(=O)NC1CCN(Cc2ccc(-n3c(-c4cccnc4N)nc4cccnc43)cc2)CC1` [Example 29, N-(1-(4-(2-(2-Aminopyridin-3-yl)-3H-imidazo[4,5-b]pyridin-3-yl)benzyl)piperidin-4-yl)-4-cyanonicotinamide], the IC50 lay in the range of 600 to 10000 nM. On the same count and under the same terms, the figure for `N#Cc1ccncc1C(=O)NC1CCN(Cc2ccc(-n3c(-c4cccnc4N)nc4ccc(-c5ccccc5)nc43)cc2)CC1` [Example 60, N-(1-(4-(2-(2-Aminopyridin-3-yl)-5-phenyl-3H-imidazo[4,5-b]pyridin-3-yl)benzyl)piperidin-4-yl)-4-cyanonicotinamide] is < 15 nM. On the same count and under the same terms, for `CN(c1ncnc(C#N)n1)C1CCN(Cc2ccc(-n3c(-c4cccnc4N)nc4ccc(-c5ccccc5)nc43)cc2)CC1` [Example 223, 4-((1-(4-(2-(2-aminopyridin-3-yl)-5-phenyl-3H-imidazo[4,5-b]pyridin-3-yl)benzyl)piperidin-4-yl)(methyl)amino)-1,3,5-triazine-2-carbonitrile] the value was 15 to 60 nM; for `Cn1cccc(-c2ccc3nc(-c4cccnc4N)n(-c4ccc(CN5CCC(Nc6ccnc(C#N)n6)CC5)cc4)c3n2)c1=O` [Example 261, 4-((1-(4-(2-(2-Aminopyridin-3-yl)-5-(1-methyl-2-oxo-1,2-dihydropyridin-3-yl)-3H-imidazo[4,5-b]pyridin-3-yl)benzyl)piperidin-4-yl)amino)pyrimidine-2-carbonitrile], < 15 nM; for `C[C@H]1CN(Cc2ccc(-n3c(-c4cccnc4N)nc4ccc(-c5ccccc5)nc43)cc2)C[C@H](C)N1c1nccc(C#N)n1` [Example 193, 2-((2S,6S)-4-(4-(2-(2-Aminopyridin-3-yl)-5-phenyl-3H-imidazo[4,5-b]pyridin-3-yl)benzyl)-2,6-dimethylpiperazin-1-yl)pyrimidine-4-carbonitrile], 60 to 600 nM.

As a reminder, the IC50 is the midpoint of a concentration-inhibition curve.

(Values after patent US12209087B2, “AKT1 modulators” (Alterome Therapeutics, Inc., priority 2022, dated 2025).)
